Results: patent US4388320A, “3-Aminopropoxyaryl derivative in the treatment of tremor” (Sandoz Ltd., priority 1981, dated 1983)
Entries after “also recorded” stand apart in the source; their conditions may differ.

Tests used:
[1] = known use; cited from earlier work
[2] = another clinical study, 6 patients with essential (familiary) tremor (Table 3); type: in vivo; conditions: 4 to 12 mg per day
[3] = test system: adrenergic β-receptors; conditions: U.K. Patent Specification No. 1,575,510; cited from earlier work
[4] = further, similar clinical study, 4 patients with essential (familiary) tremor (Table 2); type: in vivo; conditions: 1 to 12 mg per day
Procedure: The result of a further, similar study with 4 patients with essential (familiary) tremor treated for 4 weeks with 1 to 12 mg per day of the compound of formula I in hydrogen malonate form is indicated in table 2: […]

[5] = acute toxicity, rat; conditions: in vivo, hydrogen malonate form
From the text: (§1) The tolerability of the compound was also studied using standard tests. For example, the acute toxicity of the compound of formula I in hydrogen malonate form is as follows: […]

[6] = first clinical study, 6 patients with constant essential (familiary) tremor, 4 weeks (Table 1); type: in vivo
Procedure: In one clinical study 6 patients with constant essential (familiary) tremor were given for 4 weeks once-a-day in the morning a capsule containing 1 to 8 mg of the compound of formula I in hydrogen malonate form. The dosage was increased gradually over the first two weeks of the study.

[7] = tolerability and comparison with other agents in anti-tremor use; type: in vivo, patients
[8] = test system: lipolysis and glycogenolysis induced by isoproterenol; conditions: U.K. Patent Specification No. 1,575,510; cited from earlier work
[9] = acute toxicity, rabbit; conditions: in vivo, hydrogen malonate form
From the text: as §1

[10] = acute toxicity, mouse; conditions: in vivo, hydrogen malonate form
From the text: as §1

[11] = U.K. Patent Specification No. 1,575,510; cited from earlier work
[12] = clinical observations, treatment of tremor (overall); type: in vivo, patients
[13] = 6 patients, 4 weeks, hydrogen malonate form
[14] = 4 patients, 4 weeks, hydrogen malonate form
[15] = after 2 weeks, total 6 patients, capsule once-a-day, 1 to 8 mg, hydrogen malonate form
[16] = after 4 weeks, total 6 patients, capsule once-a-day, 1 to 8 mg, hydrogen malonate form

C=CCc1ccccc1OCC(O)CNC(C)C (stereo not shown) [alprenolol]
activity against tremor [1]: inactive

Cc1cc2c(OCC(CNC(C)(C)C)OC(=O)c3ccccc3)cccc2[nH]1 (stereo not shown) [compound of formula I, 4(2-benzoyloxy-3-tert-butylaminopropoxy)-2-methylindole]
hypotension and bradycardia [2]: no hypotension and no bradycardia
improvement (in words) ([2]; 6 patients, 4 weeks): These results were confirmed; also recorded: very good or good improvement was observed in all patients
Number of patients showing good improvement [2, 13]: 3 patients
Number of patients showing very good improvement [2, 13]: 3 patients
blocking effect on the adrenergic β-receptors [3]: blocking effect on the adrenergic β-receptors
hypotension and bradycardia [4]: no hypotension and no bradycardia
side effects [4]: exceptionally few side effects
time to first observed improvement [4]: already after one week of treatment
time to maximum improvement [4]: 2 weeks
improvement (in words) ([4]; 4 patients, 4 weeks): marked improvement was observed in all 4 patients
Number of patients showing good improvement [4, 14]: 2 patients
Number of patients showing very good improvement [4, 14]: 2 patients
LD50 ([5]; iv, read-out: LD50 i.v.): 9 mg/kg
LD50 ([5]; po, read-out: LD50 p.o.): 1010 mg/kg
improvement in tremor, benefit (in words) ([6]; 6 patients, 4 weeks, 1 to 8 mg once-a-day): all patients gained benefit; also recorded: the degree of improvement was either marked or moderate
Number of patients with marked (Ma) improvement after 2 weeks [6, 15]: 2 patients
Number of patients with moderate (Mo) improvement after 2 weeks [6, 15]: 4 patients
Number of patients with marked (Ma) improvement after 4 weeks [6, 16]: 3 patients
Number of patients with moderate (Mo) improvement after 4 weeks [6, 16]: 3 patients
hypotension and bradycardia ([6]; during treatment): No hypotension and no bradycardia
side effects ([6]; during treatment): remarkably free of side effects
duration of beneficial effect ([6]; once-a-day in the morning): the beneficial effect lasted the whole day
hypotension or bradycardia ([7]; in vivo): not induce hypotension or bradycardia
influence on P-Q wave in the electrocardiogramm ([7]; in vivo): does not significantly influence the P-Q wave
overall safety ([7]; in vivo): exceptionally safe
effect on blood pressure and heart rate ([7]; patients with underlying hypertension or tachycardia): normalization of blood pressure and heart rate
onset of anti-tremor activity compared with anticholinergics ([7]; versus anticholinergics): more rapid onset of activity
tolerability compared with anticholinergics ([7]; versus anticholinergics): better tolerated than anticholinergics
tolerability compared with other β-adrenoceptor blocking agents ([7]; versus e.g. propranolol): better tolerated than other β-adrenoceptor blocking agents, e.g. propranolol
inhibition of lipolysis and glycogenolysis [8]: inhibit lipolysis and glycogenolysis induced by isoproterenol
LD50 ([9]; iv, read-out: LD50 i.v.): 7 mg/kg
LD50 ([9]; po, read-out: LD50 p.o.): 334 mg/kg
LD50 ([10]; iv, read-out: LD50 i.v.): 11 mg/kg
LD50 ([10]; po, read-out: LD50 p.o.): 242 mg/kg
antiarrhythmic effect [11]: antiarrhythmic effect
usefulness / improvement in treatment of tremor (in words) [12]: impressive improvement; also recorded: useful in the treatment of tremor, especially of essential (familiary) tremor

C=CCOc1ccccc1OCC(O)CNC(C)C (stereo not shown) [oxprenolol]
activity against tremor [1]: inactive

CC(C)NCC(O)COc1cccc2ccccc12 (stereo not shown) [propranolol]
activity against tremor [1]: conflicting results

CC(C)(C)NC[C@H](O)COc1nsnc1N1CCOCC1 [timolol]
activity against tremor [1]: inactive
